# Marks after values point to notes of the source that are not given here.
# Tests used:
# [1] = Experiment 1-1 feeding test on rat: weight and amount of feed taken; assay type: in vivo; details: 4 weeks
# Source text: (§1) Fifty 5-weeks aged male Wister-rats, having a weight of 110 to 120 grams, commercialized by Charles River Japan, Kanagawa, Japan, were fed on a non-fiber feed having a composition shown in Table 1 for one week for habituation. After the habituation, the rats were randomly divided into five groups and each group was fed on either of feeds shown in Table 1, i.e., a non-fiber feed, a feed in which cellulose was incorporated into the non-fiber feed to give a content of 5% (hereinafter, abbreviated as “fiber feed”), a feed in which powdery anhydrous crystalline CTS (purity of CTS: 99.5%), prepared by the method of Example A-3 described later, was incorporated into the non-fiber feed to give a content of 1, 2, or 5%, on a dry solid basis, and the feeding test was carried out for four weeks. A fiber-feed and three kinds of feeds comprising CTS were prepared to give the total content of cellulose or CTS and corn starch of 44.75% to the total weight of each feed. The rats were kept under the conditions of keeping the temperature at 25° C., lighting and shading for 12 hours each/day, and allowing the rats to eat the respective feed and water freely. After the completion of the feeding test, weight of individuals in each group was measured and an average weight and an average increase of weight of each group during the test period were calculated. Also, the total amount of feed fed to individual rat in each group during the 4-weeks test period and an average amount of CTS taken per day per kg-weight-rat were calculated and the results are in Table 2.
# [2] = system: male Wister-rats; assay: Experiment 1-1 amount of lipids in blood plasma; assay type: in vivo; details: 4 weeks, rat
# Source text: as §1
# After the feeding test, each rat was fasted for one day and incised under anesthesia with ether. Then, blood was collected from the main vein of each rat using a syringe treated with 1% EDTA. Each collected blood was centrifuged at 3,500 rpm for 10 minutes to separate blood plasma and the contents of total cholesterol, triglyceride, and phospholipids in the resulting blood plasma were measured by using kits, “CHOLESTEROL C-TEST-WAKO”, “TRIGLYCERIDE-TEST-WAKO”, and “PHOSPHOLIPID C-TEST-WAKO”, respectively, commercialized by Wako Pure Chemical Industries, Ltd., Osaka, Japan. In order to check the hepatic function disorder, GOT activity in the blood plasma was measured using a kit, “GOT-TEST-WAKO”, commercialized by Wako Pure Chemical Industries, Ltd., Osaka, Japan. The content of LDL-cholesterol was calculated by subtracting the content of HDL-cholesterol from the total content of cholesterol. A significant difference test was done with respect to the group fed on fiber feed. In the case of cholesterol, a significant difference test was done with respect to the group fed on non-fiber feed because it was believed that cellulose has no activity of reducing the amount of cholesterol by oral intake as described in “SHOKUMOTSU-SENI KISO-TO-OYO (Dietary fiber, its basis and application)” published by ASAKURA-SHOTEN in 1997.
# [3] = system: male Wister-rats; assay: Experiment 1-1 GOT activity in blood plasma (hepatic function disorder check); assay type: in vivo, rat; details: for GOT: blood plasma, 4 weeks, rat
# Source text: as §1
# After the feeding test, each rat was fasted for one day and incised under anesthesia with ether. Then, blood was collected from the main vein of each rat using a syringe treated with 1% EDTA. Each collected blood was centrifuged at 3,500 rpm for 10 minutes to separate blood plasma and the contents of total cholesterol, triglyceride, and phospholipids in the resulting blood plasma were measured by using kits, “CHOLESTEROL C-TEST-WAKO”, “TRIGLYCERIDE-TEST-WAKO”, and “PHOSPHOLIPID C-TEST-WAKO”, respectively, commercialized by Wako Pure Chemical Industries, Ltd., Osaka, Japan. In order to check the hepatic function disorder, GOT activity in the blood plasma was measured using a kit, “GOT-TEST-WAKO”, commercialized by Wako Pure Chemical Industries, Ltd., Osaka, Japan. The content of LDL-cholesterol was calculated by subtracting the content of HDL-cholesterol from the total content of cholesterol. A significant difference test was done with respect to the group fed on fiber feed. […]
# [4] = system: male Wister-rats; assay: Experiment 1-1 wet-weight of adipose tissues around organs; assay type: in vivo; details: 4 weeks, rat
# Source text: as §1
# (§2) After collecting the blood described above, each rat was killed by dislocating its cervical vertebrae and anatomized. Then, adipose tissues surrounding intestinal membrane, kidney, and testis, as well as liver and cecum, were collected. The wet-weight of those adipose tissues was measured and the results are in Table 4. In the case of liver, the wet-weight and the amount of total lipid, total cholesterol, triglyceride, and phospholipids were measured and the results are in Table 5. The amount of total lipid, total cholesterol, triglyceride, and phospholipids in the liver were measured by the steps of homogenizing four parts by weight of liver with four parts by weight of water using a homogenizer; extracting lipid by repeating three-times the following procedure of adding eight milliliters of a chloroform-methanol (2:1, by volume) solution, stirring the mixture, and centrifuging (3,000 rpm, 15 min) to collect chloroform phase; concentrating the resulting chloroform solution; and measuring those according to the same procedure used in the case of lipids in blood plasma.
# [5] = system: male Wister-rats; assay: Experiment 1-1 liver weight and lipids in liver; assay type: in vivo; details: 4 weeks, rat
# Source text: as §1, §2
# [6] = system: male Wister-rats; assay: Experiment 1-1 cecal tissue, cecal content and bile acids in cecum; assay type: in vivo; details: 4 weeks, rat
# Source text: Fifty 5-weeks aged male Wister-rats, having a weight of 110 to 120 grams, commercialized by Charles River Japan, Kanagawa, Japan, were fed on a non-fiber feed having a composition shown in Table 1 for one week for habituation. After the habituation, the rats were randomly divided into five groups and each group was fed on either of feeds shown in Table 1, i.e., a non-fiber feed, a feed in which cellulose was incorporated into the non-fiber feed to give a content of 5% (hereinafter, abbreviated as “fiber feed”), a feed in which powdery anhydrous crystalline CTS (purity of CTS: 99.5%), prepared by the method of Example A-3 described later, was incorporated into the non-fiber feed to give a content of 1, 2, or 5%, on a dry solid basis, and the feeding test was carried out for four weeks. A fiber-feed and three kinds of feeds comprising CTS were prepared to give the total content of cellulose or CTS and corn starch of 44.75% to the total weight of each feed. […] After the completion of the feeding test, weight of individuals in each group was measured and an average weight and an average increase of weight of each group during the test period were calculated. Also, the total amount of feed fed to individual rat in each group during the 4-weeks test period and an average amount of CTS taken per day per kg-weight-rat were calculated and the results are in Table 2.
# Just after extirpating cecum as described above, its content was collected and weighted. The concentration of bile acids was measured by the steps of adding two milliliters of 80% (v/v) methanol aqueous solution to 0.2 gram of the cecal content, extracting bile acids at 70° C. for 30 min, centrifuging (3,500 rpm, 10 min) the mixture, drying the resulting supernatant in a dessicator with P2O5 for overnight, and measuring bile acids using a kit, “BILE ACID-TEST WAKO”, commercialized by Wako Pure Chemical Industries, Ltd., Osaka, Japan. The amount of bile acids was calculated by multiplying the concentration of bile acids and weight of the cecal content. […]
# [7] = system: male Wister-rats; assay: Experiment 1-1 observation of diarrhea during feeding test; assay type: in vivo, rat
# Source text: as §1
# The symptom of diarrhea was not observed in rats fed on a feed with CTS content of 2%.
# [8] = 5% (w/w) CTS (Fiber: 5% cellulose) in feed
compound,measurement,setting,value
"OCC1OC2OCC3O[C@H](O[C@H]4C(O)C(CO)OC(OCC5O[C@H](O[C@@H](C1O)C2O)C(O)C(O)[C@@H]5O)C4O)C(O)C(O)[C@@H]3O (stereo partly drawn) [CTS, cyclo {→6)-α-D-glucopyranosyl-(1→3)-α-D-glucopyranosyl-(1→6)-α-D-glucopyranosyl-(1→3)-α-D-glucopyranosyl-(1→}]",Increase of weight,[1]; 1% (w/w) CTS in feed,164 g/individual/28 days
same,Weight,[1]; 1% (w/w) CTS in feed,337 g/individual
same,Increase of weight,[1]; 2% (w/w) CTS in feed,169 g/individual/28 days
same,Weight,[1]; 2% (w/w) CTS in feed,342 g/individual
same,Increase of weight,[1]; [8],149* g/individual/28 days
same,Weight,[1]; [8],322* g/individual
same,Phospholipids,[2]; 1% (w/w) CTS in feed,116 mg/dL
same,Total cholesterols,[2]; 1% (w/w) CTS in feed,67.1 mg/dL
same,Triglycerides,[2]; 1% (w/w) CTS in feed,44.2 mg/dL
same,Phospholipids,[2]; 2% (w/w) CTS in feed,115 mg/dL
same,Total cholesterols,[2]; 2% (w/w) CTS in feed,66.1 mg/dL
same,Triglycerides,[2]; 2% (w/w) CTS in feed,28.7* mg/dl
same,Phospholipids,[2]; [8],107 mg/dL
same,Total cholesterols,[2]; [8],59.4* mg/dl
same,Triglycerides,[2]; [8],21.7* mg/dl
same,GOT,[3]; 1% (w/w) CTS in feed,10.3 IU
same,GOT,[3]; 2% (w/w) CTS in feed,10.2 IU
same,GOT,[3]; [8],10.7 IU
same,GOT values (markers of functional disorder of liver) during the test period,"[3]; rats, regardless of the intake of CTS",not significantly changed
same,Adipose surrounding intestinal membrane,[4]; 1% (w/w) CTS in feed,3.7 g/individual
same,Adipose surrounding kidney,[4]; 1% (w/w) CTS in feed,3.7* g/individual
same,Adipose surrounding testis,[4]; 1% (w/w) CTS in feed,4.0* g/individual
same,Adipose surrounding intestinal membrane,[4]; 2% (w/w) CTS in feed,3.1* g/individual
same,Adipose surrounding kidney,[4]; 2% (w/w) CTS in feed,2.9* g/individual
same,Adipose surrounding testis,[4]; 2% (w/w) CTS in feed,3.9* g/individual
same,Adipose surrounding intestinal membrane,[4]; [8],1.9* g/individual
same,Adipose surrounding kidney,[4]; [8],2.1* g/individual
same,Adipose surrounding testis,[4]; [8],3.1* g/individual
same,Phospholipids in liver,[5]; 1% (w/w) CTS in feed,140 mg/individual
same,Total cholesterols in liver,[5]; 1% (w/w) CTS in feed,35.9 mg/individual
same,Total lipids in liver,[5]; 1% (w/w) CTS in feed,510 mg/individual
same,Triglycerides in liver,[5]; 1% (w/w) CTS in feed,186 mg/individual
same,Phospholipids in liver,[5]; 2% (w/w) CTS in feed,149 mg/individual
same,Total cholesterols in liver,[5]; 2% (w/w) CTS in feed,37.2 mg/individual
same,Total lipids in liver,[5]; 2% (w/w) CTS in feed,598 mg/individual
same,Triglycerides in liver,[5]; 2% (w/w) CTS in feed,254 mg/individual
same,Phospholipids in liver,[5]; [8],142 mg/individual
same,Total cholesterols in liver,[5]; [8],35.4 mg/individual
same,Total lipids in liver,[5]; [8],575 mg/individual
same,Triglycerides in liver,[5]; [8],239 mg/individual
same,Bile acids in cecum,[6]; 1% (w/w) CTS in feed,1.15* μmol
same,Bile acids in cecum,[6]; 2% (w/w) CTS in feed,1.36* μmol
same,Bile acids in cecum,[6]; [8],1.53* μmol
same,symptom of diarrhea,[7]; rats fed on a feed with CTS content of 2%,not observed
same,duration of symptom of diarrhea after initial intake of CTS,[7]; rats fed on a feed with CTS content of 5%,2 to 3 days
same,symptom of diarrhea (individuals affected),"[7]; rats fed on a feed with CTS content of 5%, then cured",two individuals in ten individuals

# Reference: patent publication US8940715B2, “Lipid-regulating agent and use thereof” (Hayashibara Co., Ltd., priority 2003, dated 2015)
